# Data as given in patent publication US5639729A, “Tripeptides useful in immune and CNS therapy” (Immunobiology Research Institute, Inc., priority 1993, dated 1997).
# Key:
# [1] = test system: insulin-induced ACTH secretion; assay: Effect of peptide on insulin-induced ACTH secretion (insulin challenge); assay type: in vivo, Sprague-Dawley rats; conditions: insulin 0.5 IU/kg intraperitoneally, 30 minutes, rats pretreated with saline by oral gavage or s.c. injection; from 16.8±0.8 pg/ml
# Experimental: As mentioned above, the administration of insulin can be used as a provocative challenge test to determine how an organism responds to stress and how the response can be manipulated. It was shown in FIG. 1 that, in rats, administration of insulin causes an increase in plasma concentrations of ACTH.
# Adult male Sprague-Dawley rats were used in these experiments. After an overnight fast, the peptide or saline was administered by oral gavage or by subcutaneous injection to the experimental subjects. Doses of the peptide ranged from 0.1 to 10 mg/kg by the oral route and 0.03 to 3.0 mg/kg by the subcutaneous route. […] all animals were treated with insulin (0.5 IU/kg) and were sacrificed by decapitation 30 minutes later. As above, trunk blood was collected in polypropylene tubes containing 400 μl of 10% EDTA at 4° C. Plasma was separated by centrifugation and stored at -80° C. until being used for ACTH determinations, ACTH concentrations were determined by RIA as described by Nicholson et al, cited above, using antiserum [IgG Corporation] and ^125 I-labelled ACTH [ICN Corporation].
# ACTH secretion = assay: Actions of insulin on ACTH secretion; assay type: in vivo, Sprague-Dawley rats; conditions: 30 minutes, fasted male rats
# Experimental: To determine whether a drug can modify stress responses, the stress response itself must be characterized. To accomplish this goal, adult male Sprague-Dawley rats [Charles River, Kingston, N.Y.] were treated with increasing doses of insulin [Humulin, Eli Lilly Co.] ranging from 0.05 to 5 IU/kg or saline intraperitoneally after an overnight fast. Thirty minutes after administering insulin, the animals were sacrificed by decapitation and trunk blood was collected into polypropylene tubes containing 400 μl of 10% EDTA at 4° C. The plasma was separated by centrifugation and stored at -80° C. until being used for ACTH determinations. Plasma concentrations of ACTH were determined by radioimmunoassay using antiserum [IgG Corporation, Nashville, Tenn.] and ^125 I-labelled ACTH [ICN Corporation, Costa Mesa, Calif.] as described by Nicholson et al, Clin. Chem., 30:259-265 (1984).
substance,measurement,setting,value
"insulin: insulin [Humulin, Eli Lilly Co.], used as provocative challenge to raise plasma ACTH in rats",plasma ACTH concentrations,[1],approximately 200 pg/ml
same,plasma ACTH levels,ACTH secretion; insulin 0.05 IU/kg intraperitoneally,not elevated
same,plasma ACTH concentrations,ACTH secretion; insulin 0.1 IU/kg intraperitoneally,significantly greater than in vehicle treated controls
same,ACTH responses,ACTH secretion; insulin doses higher than 0.1 IU/kg up to 5 IU/kg intraperitoneally,commensuratively greater ACTH responses
